Results as given in patent US20220304993A1, “CONJUGATES OF AN ELECTRON-DONATING NITROGEN OR TERTIARY AMINE […]” (Ascendis Pharma A/S, priority 2019, published 2022).

Test: In vitro release kinetics: cleavage rate of the reversible bond from the conjugates
Assay type: physicochemical
Details: pH 7.4, 37° C., aqueous buffer (48 mM sodium phosphate, 20% acetonitrile), disappearance of the conjugate by LCMS (UV detection), curve fitting, read-out: t1/2 (pH 7.4) (converted)
Protocol: The cleavage rate of the reversible bond from conjugates 8a-b was monitored at pH 7.4 and 37° C. in aqueous buffer (pH 7.4, 48 mM sodium phosphate, 20% acetonitrile). Disappearance of the conjugate was determined by LCMS (UV detection) and fitted with curve fitting software to obtain the half-life of the release.

| SMILES | half-life [h] |
| --- | --- |
| CNCCCN(C)C(=O)Oc1ccc(C(C)[n+]2cccc3ccccc32)cc1 (centres unmarked) [Compound 8b] | 1.8 |
| CNCCCN(C)C(=O)Oc1ccc(C(C)[N+](C)(C)CCc2ccccc2)cc1 (centres unmarked) [Compound 8a] | 1.3 |
